Results: US10072026B2, “Crystalline form of 3-((1R,3s,5S)-3-((7-((5-methyl-1H-pyrazol-3-yl)amino)-1,6-naphthyridin-5-yl)amino)-8-azabicyclo[3.2.1]octan-8-yl)propanenitrile” (priority 2015, dated 2018)
Where two headings read alike, the source gives them in different places.

Legend:
in vivo = assay: in vivo; set-up: species or system Sprague Dawley rats; details: Sprague Dawley, rat, po, 5 mg/kg
Experimental: Assay 5: Colon Pharmacokinetics in Rats
Test compounds were individually formulated in 0.5% methyl-cellulose in water and dosed via oral gavage at 5 mg/kg to Sprague Dawley rats. At various time points (typically 1, 2, 4, 6, 24 hr) post dosing, blood samples were removed via cardiac puncture and intact colons were excised from the rats. Blood samples were centrifuged at 1500×g for 15 min to collect plasma. Colons were washed with ice cold phosphate buffered saline (PBS), weighed, and homogenized at a dilution of 1:10 in PBS. Plasma and colon levels of test compound were determined by LC-MS analysis against analytical standards constructed into a standard curve in the test matrix. A colon to plasma ratio was determined as the ratio of the colon AUC to the plasma AUC in μg hr/g.

JAK2 = JAK2 (Homo sapiens (Human), UniProt O60674); assay: LanthaScreen JAK biochemical assay (JAK2)
[1] = test system: IL-4 induced STAT6 phosphorylation in THP-1 human monocytic cells; assay: Cellular JAK potency assay, THP-1; details: Homo sapiens, THP-1, read-out: THP-1 IL4 pIC50 (converted)
[2] = test system: IL-13 induced STAT6 phosphorylation in BEAS-2B human lung epithelial cells; assay: AlphaScreen cellular JAK potency assay, BEAS-2B; details: Homo sapiens, BEAS-2B, read-out: BEAS2B pIC50 (converted)
[3] = test system: oxazolone-induced colitis; assay: Mouse model of oxazolone-induced colitis; type: in vivo, BALB/C mice; details: mouse, PO, 1, 3, and/or 10 mg/kg BID
Experimental: Assay 7: Mouse Model of Oxazalone-Induced Colitis
Oxazolone-induced colitis is an experimental model that has a histological resemblance to human ulcerative colitis (Heller et al. Immunology, 2002, 17, 629-638). Adult BALB/C mice from Harlan were used in the assay. On day 1, animals were lightly anesthetized with isoflurane and the hairs between the shoulder were carefully removed before oxazolone (4%, 150 μL, 4:1 acetone:olive oil formulation) or vehicle solution was slowly applied for skin sensitization. Seven days after skin sensitization, the mice were fasted overnight, anesthetized with isoflurane inhalation, and a 1 mL syringe equipped with a 3.5-F catheter, filled with oxazolone solution, was inserted carefully about 4 cm into the colon of the mouse. Following insertion, 50 μL of the oxazolone solution (1%, 1:1 ethanol:water formulation) was injected very slowly (over 30 sec using an injection pump) into the colon. The catheter was removed and the mice were held vertically (head down) for 2 min to ensure that the entire oxazolone solution remained inside the colon. Drug treatment (PO, BID or TID) or vehicle was initiated a day prior to the oxazolone intrarectal (IR) challenge. Two-day post oxazolone intrarectal challenge, the Disease Activity Index (DAI) was assessed by treatment-blinded experimenters for each mouse according to the criteria score: stool consistency score (0, normal; 2, loose; 4, diarrhea), gross bleeding score (0, absence; 2, blood tinged; 4, presence), and weight loss score (0, none; 1, 1%-5%; 2, 5%-10%; 3, 10%-20%; 4, more than 20%); DAI=average of (stool consistency score+gross bleeding score+weight loss score).
Selected compounds of the invention were tested in the assay. Efficacy in the model is evidenced by a decrease in DAI score as compared with the score from vehicle treated animals.

JAK1 = JAK1 (Homo sapiens (Human), UniProt P23458); assay: LanthaScreen JAK biochemical assay (JAK1)
[4] = Determination of absorption in cannulated rats; type: in vivo; details: Sprague Dawley rats, oral vs IV; for bioavailability: rat, plasma (jugular vein), jugular vein, read-out: oral bioavailability (F %)
Experimental: Drug levels were determined using an LC-MS-MS method. The resulting drug levels were used to compute the IV pharmacokinetic parameters: AUC IV and Dose IV. (2) Rats that have been cannulated in their portal vein (PV) and also in their jugular vein (JV) were dosed orally with test compound. Following oral dosing, plasma samples were typically collected from 0-6 hr from both the portal vein and the jugular vein. Drug levels were determined using an LC-MS-MS method. The resulting drug levels were used to compute the following pharmacokinetic parameters: AUC PO PV, AUC PO JV, and Dose PO. Using data derived from the above studies, the oral bioavailability F %, and the quantities Fa% and Fh% were calculated from the following formulas: F %=(AUC PO JV/AUC IV)*(Dose IV/Dose PO)*100 Fa%=(AUC PO PV/AUC IV)*(Dose IV/Dose PO)*100 Fh%=AUC PO JV/AUC PO PV where: AUC PO JV=Area under the curve following oral dose and plasma collected from the jugular vein AUC PO PV=Area under the curve following oral dose and plasma collected from the portal vein AUC IV=Area under the curve following an intravenous dose Dose IV=Intravenous Dose in mg/kg Dose PO=Oral Dose in mg/kg

[5] = Dynamic moisture sorption assessment; type: physicochemical
Experimental: The DMS run was performed isothermally at 25° C.

[6] = Solid state stability assessment; type: physicochemical; set-up: Impurity at RRT 0.96 / Impurity at RRT 1.84: unit not given here
Source text: Solid State Stability Assessment
At specific intervals, the contents of a representative sample was removed and analyzed by HPLC for chemical purity and by Karl Fischer for water content.

mouse splenic NK cells = assay: Immunosuppression effects in mouse splenic natural killer (NK) cells; type: in vivo, Balb/C mice; details: PO BID three days
Experimental: Adult male Balb/C mice (12-14 weeks of age) from Harlan were used for the study. […] Spleens were harvested 1 or 2 h post last dose and crushed immediately for cell subtype staining. Prior to fixation, fluorophore-labelled antibodies for CD19 (FITC; B cells), CD3e (PE; pan T cells) and DX5 (APC; NK cells) were incubated with splenocyte samples from each animal to allow for simultaneous, multiple subtype % analysis on the flow cytometer. The number of total spleen cells for each animal was measured by Scepter™ 2.0 Handheld Automated Cell Counter. The absolute number of lymphocyte subtype population (e.g., splenic B, T and NK cells) was calculated from the percentage of each subtype times total spleen cells for each animal. A one way ANOVA, with Dunnett's post hoc test, was used to compare the splenic lymphocytes number of the vehicle and test compound groups. The a level was set at p<0.05. Data were presented as the mean±SEM for each group.

JAK2, sequence (O60674 whole entry): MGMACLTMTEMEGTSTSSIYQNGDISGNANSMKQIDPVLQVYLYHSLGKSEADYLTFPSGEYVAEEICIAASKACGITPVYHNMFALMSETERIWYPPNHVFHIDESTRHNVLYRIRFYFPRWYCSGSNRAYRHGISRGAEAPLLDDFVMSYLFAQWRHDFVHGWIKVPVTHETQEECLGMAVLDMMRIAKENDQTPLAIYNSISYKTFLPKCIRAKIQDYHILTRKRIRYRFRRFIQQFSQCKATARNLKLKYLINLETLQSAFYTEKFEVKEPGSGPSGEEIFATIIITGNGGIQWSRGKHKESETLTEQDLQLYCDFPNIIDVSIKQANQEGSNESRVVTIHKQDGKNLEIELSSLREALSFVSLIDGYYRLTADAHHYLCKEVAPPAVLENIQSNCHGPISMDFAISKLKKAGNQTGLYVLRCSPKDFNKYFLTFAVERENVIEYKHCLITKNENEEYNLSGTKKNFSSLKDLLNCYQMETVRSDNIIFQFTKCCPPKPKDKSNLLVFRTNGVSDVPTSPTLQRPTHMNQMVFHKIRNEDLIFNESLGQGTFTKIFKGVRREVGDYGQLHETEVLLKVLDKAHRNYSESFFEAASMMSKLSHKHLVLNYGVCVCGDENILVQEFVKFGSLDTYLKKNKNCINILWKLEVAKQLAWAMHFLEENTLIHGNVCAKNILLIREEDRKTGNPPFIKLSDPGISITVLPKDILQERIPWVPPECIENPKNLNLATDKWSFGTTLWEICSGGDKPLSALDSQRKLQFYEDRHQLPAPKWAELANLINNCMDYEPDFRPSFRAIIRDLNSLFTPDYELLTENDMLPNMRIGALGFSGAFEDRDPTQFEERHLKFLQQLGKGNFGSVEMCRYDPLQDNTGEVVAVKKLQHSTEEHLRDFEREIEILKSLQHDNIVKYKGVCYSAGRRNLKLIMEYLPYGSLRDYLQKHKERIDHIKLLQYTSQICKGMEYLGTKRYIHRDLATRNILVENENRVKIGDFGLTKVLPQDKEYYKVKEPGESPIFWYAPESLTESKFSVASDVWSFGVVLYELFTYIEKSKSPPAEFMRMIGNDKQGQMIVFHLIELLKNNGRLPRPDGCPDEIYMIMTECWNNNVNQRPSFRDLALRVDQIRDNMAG
JAK1, sequence (P23458 whole entry): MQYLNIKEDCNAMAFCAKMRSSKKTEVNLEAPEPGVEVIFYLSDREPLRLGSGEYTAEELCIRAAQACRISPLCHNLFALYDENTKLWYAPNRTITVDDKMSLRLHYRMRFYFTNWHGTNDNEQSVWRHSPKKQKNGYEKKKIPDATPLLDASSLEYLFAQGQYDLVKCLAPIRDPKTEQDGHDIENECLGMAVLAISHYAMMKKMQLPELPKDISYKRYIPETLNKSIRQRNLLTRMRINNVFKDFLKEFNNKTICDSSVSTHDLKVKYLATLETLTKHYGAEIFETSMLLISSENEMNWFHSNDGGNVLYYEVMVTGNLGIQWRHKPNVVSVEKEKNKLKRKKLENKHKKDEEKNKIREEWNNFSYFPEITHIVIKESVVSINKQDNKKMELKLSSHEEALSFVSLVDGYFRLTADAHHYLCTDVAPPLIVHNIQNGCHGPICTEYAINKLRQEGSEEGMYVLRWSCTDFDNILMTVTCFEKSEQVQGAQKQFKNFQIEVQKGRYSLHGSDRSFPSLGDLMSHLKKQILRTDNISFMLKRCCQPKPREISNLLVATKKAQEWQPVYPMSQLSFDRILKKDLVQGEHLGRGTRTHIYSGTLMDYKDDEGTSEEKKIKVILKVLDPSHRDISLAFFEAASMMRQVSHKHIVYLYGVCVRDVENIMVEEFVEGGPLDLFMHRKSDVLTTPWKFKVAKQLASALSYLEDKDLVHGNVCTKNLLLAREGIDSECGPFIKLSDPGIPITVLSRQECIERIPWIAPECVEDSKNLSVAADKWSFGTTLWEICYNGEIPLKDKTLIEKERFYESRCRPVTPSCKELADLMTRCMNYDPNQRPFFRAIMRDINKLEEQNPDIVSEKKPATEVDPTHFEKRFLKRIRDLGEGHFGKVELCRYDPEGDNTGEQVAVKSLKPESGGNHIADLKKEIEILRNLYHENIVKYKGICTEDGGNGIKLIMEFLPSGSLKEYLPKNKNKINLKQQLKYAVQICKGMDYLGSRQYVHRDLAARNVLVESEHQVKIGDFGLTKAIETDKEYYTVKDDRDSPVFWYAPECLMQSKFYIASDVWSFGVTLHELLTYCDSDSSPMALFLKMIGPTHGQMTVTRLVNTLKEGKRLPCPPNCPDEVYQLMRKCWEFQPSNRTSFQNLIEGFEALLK

Cc1cc(Nc2cc3ncccc3c(N[C@@H]3C[C@H]4CC[C@@H](C3)N4CCF)n2)n[nH]1 [Example 2, N^5-((1R,3s,5S)-8-(2-fluoroethyl)-8-azabicyclo[3.2.1]octan-3-yl)-N^7-(5-methyl-1H-pyrazol-3-yl)-1,6-naphthyridine-5,7-diamine]
Kp (in vivo): > 450 | Ki (JAK2): 0.0001 to 0.001 µM | IC50 [1]: 0.0316 to 0.2 µM | IC50 [2]: 0.0316 to 0.2 µM | decrease in DAI score as compared with vehicle treated animals [3]: statistically significant decrease | Ki (JAK1; read-out: JAK 1 (pKi) (converted)): 0.0001 to 0.001 µM

Cc1cc(Nc2cc3ncccc3c(N[C@@H]3C[C@H]4CC[C@@H](C3)N4C(=O)C(F)F)n2)n[nH]1 [Example 5, 2,2-difluoro-1-((1R,3s,5S)-3-((7-((5-methyl-1H-pyrazol-3-yl)amino)-1,6-naphthyridin-5-yl)amino)-8-azabicyclo[3.2.1]octan-8-yl)ethan-1-one]
Kp (in vivo): > 450 | decrease in DAI score as compared with vehicle treated animals [3]: statistically significant decrease

Cc1cc(Nc2cc3ncccc3c(N[C@@H]3C[C@H]4CCC[C@@H](C3)N4S(=O)(=O)c3cccnc3)n2)n[nH]1 [Example 8, N^7-(5-methyl-1H-pyrazol-3-yl)-N^5-((1R,3s,5S)-9-(pyridin-3-ylsulfonyl)-9-azabicyclo[3.3.1]nonan-3-yl)-1,6-naphthyridine-5,7-diamine]
IC50 [1]: < 0.0316 µM | absorption at the portal vein (Fa%) [4]: less than 10% | bioavailability [4]: < 5% | IC50 [2]: < 0.0316 µM | decrease in DAI score as compared with vehicle treated animals [3]: statistically significant decrease

Cc1cc(Nc2cc3nc(CO)ccc3c(N[C@@H]3C[C@H]4CC[C@@H](C3)N4C(=O)OCC(C)C)n2)n[nH]1 [Example 12, Isobutyl(1R,3s,5S)-3-((2-(hydroxymethyl)-7-((5-methyl-1H-pyrazol-3-yl)amino)-1,6-naphthyridin-5-yl)amino)-8-azabicyclo[3.2.1]octane-8-carboxylate]
Ki (JAK2; read-out: JAK 2 (pKi) (converted)): 0.0001 to 0.001 µM | IC50 [1]: 0.0316 to 0.2 µM | absorption at the portal vein (Fa%) [4]: less than 10% | bioavailability [4]: < 5% | IC50 [2]: 0.0316 to 0.2 µM | decrease in DAI score as compared with vehicle treated animals [3]: statistically significant decrease | Ki (JAK1): 0.0001 to 0.001 µM

Cc1cc(Nc2cc3ncccc3c(N[C@@H]3C[C@H]4CC[C@@H](C3)N4CCC#N)n2)n[nH]1 [Form I, 3-((1R,3s,5S)-3-((7-((5-methyl-1H-pyrazol-3-yl)amino)-1,6-naphthyridin-5-yl)amino)-8-azabicyclo[3.2.1]octan-8-yl)propanenitrile]
weight gain (moisture sorption) ([5]; 5% to 90% relative humidity, room temperature, listed as Crystalline 3-(1R,3s,5S)-3-((7-((5-methyl-1H-pyrazol-3-yl)amino)-1,6-naphthyrid))): less than 0.15% | hygroscopicity ([5]; two cycles of sorption and desorption, 25° C.): non-hygroscopic | changes in chemical content and impurity profile ([6]; 3 months at 40° C. and 75% relative humidity): no statistically significant changes | Assay ([6]; T = 0): 97.4 % w/w | HPLC purity ([6]; T = 0): 99.76 a/a % | Impurity at RRT 0.96 ([6]; T = 0): 0.07 | Impurity at RRT 1.84 ([6]; T = 0): 0.08 | Water (KF) ([6]; T = 0): <0.2 % w/w | Assay ([6]; T = 1 Month, 40° C./75% RH): 98.7 % w/w | HPLC purity ([6]; T = 1 Month, 40° C./75% RH): 99.79 a/a % | Impurity at RRT 0.96 ([6]; T = 1 Month, 40° C./75% RH): 0.07 | Impurity at RRT 1.84 ([6]; T = 1 Month, 40° C./75% RH): 0.08 | Assay ([6]; T = 3 Month, 25° C./60% RH): 96.3 % w/w | HPLC purity ([6]; T = 3 Month, 25° C./60% RH): 99.77 a/a % | Impurity at RRT 0.96 ([6]; T = 3 Month, 25° C./60% RH): 0.07 | Impurity at RRT 1.84 ([6]; T = 3 Month, 25° C./60% RH): 0.05 | Assay ([6]; T = 3 Month, 40° C./75% RH): 93.8 % w/w | HPLC purity ([6]; T = 3 Month, 40° C./75% RH): 99.75 a/a % | Impurity at RRT 0.96 ([6]; T = 3 Month, 40° C./75% RH): 0.07 | Impurity at RRT 1.84 ([6]; T = 3 Month, 40° C./75% RH): 0.05 | Water (KF) ([6]; T = 3 Month, 40° C./75% RH): <0.2 % w/w

C[C@@H]1CCN(C(=O)CC#N)C[C@@H]1N(C)c1ncnc2[nH]ccc12 [tofacitinib]
treatment effect on B and T cell populations (mouse splenic NK cells; mouse spleen): No treatment effect | splenic NK cell counts (mouse splenic NK cells; mouse, tofacitinib 30 mg/kg, Example 1 up to 100 mg/kg): significantly decreased
